Results from patent publication US11851445B2, “Compounds and uses thereof” (Foghorn Therapeutics Inc., priority 2020, dated 2023).

Experiments:
[1] = Interconversion between Enantiomer 1 and Enantiomer 2 in cell medium, chiral LC/MS-MS; format: physicochemical; settings: 0.2 μM, 37° C.
Method: For the assessment of interconversion between Enantiomer 1 and Enantiomer 2 in cell medium, the following test was performed. […] At designated time point, aliquot (50 μL) was taken and processed by the addition of 150 μL of acetonitrile containing 0.1% formic acid and internal standard for LC/MS-MS analysis. Peak areas of both Enantiomer 1 and Enantiomer 2 were determined for each sample using a chiral specific analytical method.

[2] = target: T1, BRD9 (Homo sapiens, UniProt Q9H8M2); assay: Pharmacodynamic BRD9 level in SYO-1 xenograft tumors, western blot (Example 14); format: in vivo; design: degradation endogenous BRD9 protein in two synovial sarcoma cell lines; endogenous in cells; host or cells: SYO1 (SYO-1) synovial sarcoma cells; settings: for pharmacodynamic activity assessed by BRD9 protein level: BALB/c Nude mice, i.v. single dose, FIG. 23; for BRD9 protein degradation in tumor: single dose, tumors up to 72 hours
T1 sequence (Q9H8M2 1-597): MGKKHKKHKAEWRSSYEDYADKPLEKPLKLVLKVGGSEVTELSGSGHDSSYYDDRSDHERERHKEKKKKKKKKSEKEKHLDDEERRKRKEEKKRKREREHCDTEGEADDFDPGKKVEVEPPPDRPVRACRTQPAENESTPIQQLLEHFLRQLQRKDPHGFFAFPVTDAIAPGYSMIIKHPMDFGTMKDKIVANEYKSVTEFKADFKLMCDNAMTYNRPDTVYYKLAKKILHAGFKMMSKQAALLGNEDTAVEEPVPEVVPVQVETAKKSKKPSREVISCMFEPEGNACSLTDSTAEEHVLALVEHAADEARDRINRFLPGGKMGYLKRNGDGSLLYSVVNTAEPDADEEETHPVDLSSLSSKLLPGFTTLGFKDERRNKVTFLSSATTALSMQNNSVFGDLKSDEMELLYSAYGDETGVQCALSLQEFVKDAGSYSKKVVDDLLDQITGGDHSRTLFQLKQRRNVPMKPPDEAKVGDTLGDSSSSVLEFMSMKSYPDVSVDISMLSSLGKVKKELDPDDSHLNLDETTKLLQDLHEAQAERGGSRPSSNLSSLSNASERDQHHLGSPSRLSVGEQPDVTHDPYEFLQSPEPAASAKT

[3] = target: T1, BRD9; assay: BRD9 degradation in ASKA cells, western blot dose response; format: cell-based; design: degradation endogenous BRD9 protein in two synovial sarcoma cell lines; endogenous in cells; host or cells: ASKA synovial sarcoma cells; settings: for DC50: read-out: Fitted DC50
Method: Method. […] Cells were then harvested, washed with cold PBS, and frozen in cell pellets at −80° C. Lysates were prepared by resuspending thawed pellets in 1×RIPA Lysis and Extraction buffer (Thermo Fisher, Cat #89900) with 1× Halt™ Protease and Phosphatase Inhibitor Cocktail, EDTA-free (Thermo Fisher, Cat #78441) and 1:1000 dilution Pierce™ Universal Nuclease for Cell Lysis 25ku (Thermo Fisher, Cat #88700). Lysates were incubated on ice for 10 minutes and then centrifuged in 4° C. at maximum speed (15,000 rpm) for 10 minutes. Samples were then analyzed for total protein using BCA protein quantification assay and diluted to 1 μg/μL with lysis buffer and 1× NuPAGE™ LDS Sample Buffer (4×) (Thermo Fisher, Cat #NP0007) and 1×DTT from 30× stock (Cell Signaling Technologies, Cat #14265S). Samples with 20-25 ug of total protein were loaded into 4-12% Bis-Tris Mini-Gel with 1×MES Running buffer and run at 150V for 45 minutes. Gels were transferred using Trans-Blot® Turbo™ Transfer System (semi-dry) at 25V for 10 minutes (High MW setting) on nitrocellulose blots. Blots were blocked in 5% milk in TBST for 1 hour and probed with BRD9 antibody (Bethyl Labs, Cat #A303-781A, 1:750 for SYO1, and Cell Signaling Technologies, Cat #71232S for ASKA) and beta-Actin antibody (Cell Signaling Technologies, Cat #3700, 1:2000) overnight at 4° C. The next day, blots were washed in TBST 3× and probed with 1:5000 IRDye® 680LT Goat anti-Rabbit IgG Secondary Antibody (LiCOR, Cat #926-68021) and 1:10000 IRDye® 800CW Goat anti-Mouse IgG Secondary Antibody (LiCOR, Cat #926-32210) in LiCOR Odyssey® Blocking Buffer (TBS) for 1 hour at room temperature. Blots were washed in TBST 3× and scanned at […] wavelength using LiCOR Odyssey® CLx Imaging System. Western blot signal was quantified using same analyses program included in the same machine. BRD9 signal was quantified by normalizing to beta-actin signal and all samples were normalized to DMSO, set as 100% signal.

[4] = target: T1, BRD9; assay: BRD9 degradation in SYO-1 cells, western blot dose response; format: cell-based; design: degradation endogenous BRD9 protein in two synovial sarcoma cell lines; endogenous in cells; host or cells: SYO1 (SYO-1) synovial sarcoma cells; settings: for DC50: read-out: Fitted DC50
Method: Method. Synoial sarcoma cells were plated in 6-well plate at 500-100 k cells/well and treated with serial concentrations of BRD9 degrader (10 nM top concentration, diluted 1:3) the next day for two time points at 37° C. Cells were then harvested, washed with cold PBS, and frozen in cell pellets at −80° C. Lysates were prepared by resuspending thawed pellets in 1×RIPA Lysis and Extraction buffer (Thermo Fisher, Cat #89900) with 1× Halt™ Protease and Phosphatase Inhibitor Cocktail, EDTA-free (Thermo Fisher, Cat #78441) and 1:1000 dilution Pierce™ Universal Nuclease for Cell Lysis 25ku (Thermo Fisher, Cat #88700). Lysates were incubated on ice for 10 minutes and then centrifuged in 4° C. at maximum speed (15,000 rpm) for 10 minutes. Samples were then analyzed for total protein using BCA protein quantification assay and diluted to 1 μg/μL with lysis buffer and 1× NuPAGE™ LDS Sample Buffer (4×) (Thermo Fisher, Cat #NP0007) and 1×DTT from 30× stock (Cell Signaling Technologies, Cat #14265S). Samples with 20-25 ug of total protein were loaded into 4-12% Bis-Tris Mini-Gel with 1×MES Running buffer and run at 150V for 45 minutes. Gels were transferred using Trans-Blot® Turbo™ Transfer System (semi-dry) at 25V for 10 minutes (High MW setting) on nitrocellulose blots. Blots were blocked in 5% milk in TBST for 1 hour and probed with BRD9 antibody (Bethyl Labs, Cat #A303-781A, 1:750 for SYO1, and Cell Signaling Technologies, Cat #71232S for ASKA) and beta-Actin antibody (Cell Signaling Technologies, Cat #3700, 1:2000) overnight at 4° C. The next day, blots were washed in TBST 3× and probed with 1:5000 IRDye® 680LT Goat anti-Rabbit IgG Secondary Antibody (LiCOR, Cat #926-68021) and 1:10000 IRDye® 800CW Goat anti-Mouse IgG Secondary Antibody (LiCOR, Cat #926-32210) in LiCOR Odyssey® Blocking Buffer (TBS) for 1 hour at room temperature. Blots were washed in TBST 3× and scanned at […] wavelength using LiCOR Odyssey® CLx Imaging System. Western blot signal was quantified using same analyses program included in the same machine. BRD9 signal was quantified by normalizing to beta-actin signal and all samples were normalized to DMSO, set as 100% signal.

[5] = test system: synovial sarcoma cell lines (SYO1, Yamato, HS-SY-II, and ASKA); assay: Growth of synovial sarcoma cell lines (Example 2: confluency, crystal violet, colonies); format: cell-based; settings: FIGS. 4, 5, 6
Method: (§1) Cells were treated with DMSO or the BRD9 degrader, Compound 1, at indicated concentrations, and proliferation was monitored from day 7 to day 14 by measuring confluency over time using an IncuCyte live cell analysis system (FIG. 4). Growth medium and compounds were refreshed every 3-4 days.
(§2) Cells were seeded into 12-well plates and treated with DMSO, 1 μM BRD9 inhibitor, Compound 2 (also known as BI-7273, see Martin et al, J Med Chem. 59(10):4462-4475 (2016); see structure of compound 2 below), or 1 μM BRD9 degrader, Compound 1.
(§3) The number of cells was optimized for each cell line. Growth medium and compounds were refreshed every 3-5 days. SYO1, Yamato, A549, 293T and HS-SY-II cells were fixed and stained at day 11. ASKA cells were fixed and stained at day 23. Staining was done by incubation with crystal violet solution (0.5 g Crystal Violet, 27 ml 37% Formaldehyde, 100 mL 10×PBS, 10 mL Methanol, 863 dH20 to 1 L) for 30 min followed by 3× washes with water and drying the plates for at least 24 h at room temperature. Subsequently plates were scanned on an Odyssey CLx Imaging system (FIG. 5).
(§4) Cells were seeded into 96-well ultra-low cluster plate (Costar, #7007) in 200 μL complete media and treated at day 2 with DMSO, Staurosporin, or BRD9 degrader, Compound 1, at indicated doses (FIG. 2C). Media and compounds were changed every 5 d and cell colonies were imaged at day 14.

[6] = test system: non-synovial control cancer cell lines (RD, HCT116, and Calu6); assay: Growth of non-synovial control cancer cell lines, crystal violet, day 14 (Example 3); format: cell-based; settings: FIG. 8
Method: (§5) Procedure: Cells were seeded into 6-well or 12-well plates and were treated daily with a BRD9 degrader (Compound 1), a bromo-domain BRD9 binder (Compound 2), E3 ligase binder (lenalidomide), DMSO, or staurosporin (positive control for cell killing), at indicated concentrations. The number of cells was optimized for each cell line. Growth media was refreshed every 5 days. By day 14, medium was removed, cells were washed with PBS, and stained using 500 μL of 0.005% (w/v) crystal violet solution in 25% (v/v) methanol for at least 1 hour at room temperature. Subsequently plates were scanned on an Odyssey CLx Imaging system.

[7] = test system: synovial sarcoma cell lines (SYO1, HS-SY-II, and ASKA); assay: Growth of synovial sarcoma cell lines, crystal violet, day 14 (Example 3); format: cell-based; settings: SYO1, HS-SY-II, ASKA; day 14; FIG. 7
Method: as §5

[8] = test system: non-synovial control cancer cell lines (293T, A549, G401); assay: Growth of non-synovial control cancer cell lines (Example 2); format: cell-based; settings: FIGS. 4, 5, 6
Method: as §1, §2, §3, §4

For `COc1cc(-c2cn(C)c(=O)c3cnc(N4CCC4)cc23)cc(OC)c1CN1CCC(CN2CCC3(CC2)CN(c2ccc4c(c2)C(=O)N(C2CCC(=O)NC2=O)C4)C3)CC1` (single isomer, unassigned; enantiomer 1) [Enantiomer 1], the “Mean peak area ratio of Enantiomer 2 over Enantiomer 1 peak area ratio” value ([1]; Enantiomer 1 Dosing, 0 h) was 0.0, the “Mean peak area ratio of Enantiomer 2 over Enantiomer 1 peak area ratio” value ([1]; Enantiomer 1 Dosing, 0.5 h) was 0.0 and the “% Enantiomer 2” value ([1]; Enantiomer 1 Dosing, 2 h) was 12%. The “Mean peak area ratio of Enantiomer 2 over Enantiomer 1 peak area ratio” value ([1]; Enantiomer 1 Dosing, 2 h) was 0.13, the “% Enantiomer 2” value ([1]; Enantiomer 1 Dosing, 6 h) was 30% and the “Mean peak area ratio of Enantiomer 2 over Enantiomer 1 peak area ratio” value ([1]; Enantiomer 1 Dosing, 6 h) was 0.43. For the same compound, the “pharmacodynamic activity assessed by BRD9 protein level” value [2] was “inactive”, the “BRD9 protein degradation in tumor” value [2] was “did not degrade BRD9 protein” and the DC50 ([3]; 0.5 h) was over 10 nM. For the same compound, the BRD9 degradation activity ([3]; 30 minutes, up to 10 μM) was “no discernable activity”, the DC50 ([3]; 2 h) was 0.38 nM and the DC50 ([4]; SYO-1, 1 h) was 2.8 nM. It also gave a DC50 ([4]; SYO-1, 6 h) of 0.066 nM.
For `COc1cc(-c2cn(C)c(=O)c3cnccc23)cc(OC)c1CN(C)C` [Compound 2, BI-7273], the “growth of the cells” value [5] was “inhibition of the growth of the cells”, the “growth of the cells” value [6] was “did not result in inhibition of the growth” and the “growth of the cells” value [7] was “inhibition of the growth of the cells”. The “growth of the cells” value [8] was “does not result in inhibition of the growth”.
In the case of `COc1cc(-c2cn(C)c(=O)c3cnc(N4CCC4)cc23)cc(OC)c1CN1CCC(CN2CCC3(CC2)CN(c2ccc4c(c2)C(=O)N(C2CCC(=O)NC2=O)C4)C3)CC1` (single isomer, unassigned; enantiomer 2) [Enantiomer 2], the “% Enantiomer 2” value ([1]; Enantiomer 2 Dosing, 0 h) is reported as 99%, the “Mean peak area ratio of Enantiomer 1 over Enantiomer 2 peak area ratio” value ([1]; Enantiomer 2 Dosing, 0 h) is reported as 0.01 and the “% Enantiomer 2” value ([1]; Enantiomer 2 Dosing, 0.5 h) is reported as 95%. The “Mean peak area ratio of Enantiomer 1 over Enantiomer 2 peak area ratio” value ([1]; Enantiomer 2 Dosing, 0.5 h) was 0.06, the “% Enantiomer 2” value ([1]; Enantiomer 2 Dosing, 2 h) was 82% and the “Mean peak area ratio of Enantiomer 1 over Enantiomer 2 peak area ratio” value ([1]; Enantiomer 2 Dosing, 2 h) was 0.22. The “% Enantiomer 2” value ([1]; Enantiomer 2 Dosing, 6 h) was 63%, the “Mean peak area ratio of Enantiomer 1 over Enantiomer 2 peak area ratio” value ([1]; Enantiomer 2 Dosing, 6 h) was 0.60 and the “potency compared with racemic compound D1” value [2] was “equipotent to racemic compound D1”. For the same compound, the “pharmacodynamic activity assessed by BRD9 protein level” value [2] was “significant activity”, the “BRD9 protein degradation in tumor” value [2] was “degraded BRD9 up to 72 hours after a single dose” and the DC50 ([3]; 0.5 h) was 0.34 nM. For the same compound, the “difference in DC50 between Enantiomer 1 and Enantiomer 2” value ([3]; 2 h) was “about 32 fold”, the DC50 ([3]; 2 h) was 0.012 nM and the “difference in DC50 between Enantiomer 1 and Enantiomer 2” value ([4]; SYO1, 6 h) was “ca. 3 fold”. The “BRD9 degradation compared with racemic compound D1” value ([4]; SYO-1, 1 or 6 hours, FIGS. 16 and 17) was “slightly better than its racemic parent compound D1”, the DC50 ([4]; SYO-1, 1 h) was 0.092 nM and the DC50 ([4]; SYO-1, 6 h) was 0.023 nM.
